pIC50: −log10 of the molar value.
Experiments:
HCT116 MTAP WT cells = assay: Proliferation inhibition of HCT116 cells in vitro (CellTiter Glo, 6 days); assay type: cell-based; details: Homo sapiens, HCT-116, 144 h, read-out: Cell proliferation inhibition rate HCT116 MTAP WT IC50 (nm)
[1] = tested on: HCT116-MTAP-KO (MTAP null) cells; assay: Proliferation inhibition of HCT116 MTAP-KO cells in vitro (CellTiter Glo, 6 days); assay type: cell-based; details: HCT116-MTAP null, 144 h, read-out: Cell proliferation inhibition rate HCT116-MTAP null IC50 (nm)

Compound | pIC50 (HCT116 MTAP WT cells) | pIC50 [1]
Cc1ncc2c(N)nc3cc(Cl)c(C(=O)N(Cc4cn5cc(C(F)(F)F)ccc5n4)c4cnn(C)c4)cc3n12 [Example 210] | 5.00 to 6.00 | 6.00 to 7.00
CCN(Cc1cn2nc(C(F)(F)F)ccc2n1)C(=O)c1cc2c(cc1F)nc(N)c1c(C)ncn12 [Example 213] | 5.00 to 6.00 | 6.00 to 7.00
CCN(C(=O)c1cc2c(cc1F)nc(N)c1c(C)ncn12)C1COc2cc(C(F)(F)F)ccc21 (stereo not shown) [Example 215] | 5.00 to 6.00 | > 7.00
CCN(Cc1cc2ccc(C(F)(F)F)cn2n1)C(=O)c1cc2c(cc1F)nc(N)c1c(C)ncn12 [Example 218] | 5.00 to 6.00 | > 7.00
Cc1ncn2c1c(N)nc1cc(F)c(C(=O)N(c3cnn(C)c3)C3COc4ccccc43)cc12 (stereo not shown) [Example 221] | 5.00 to 6.00 | > 7.00
CCN(C(=O)c1cc2c(cc1F)nc(N)c1c(C)ncn12)C1COc2cc(-c3cccnc3)ccc21 (stereo not shown) [Example 223] | 5.00 to 6.00 | 6.00 to 7.00
CCN(C(=O)c1cc2c(cc1F)nc(N)c1c(C)ncn12)C1COc2ccccc21 (stereo not shown) [Example 224] | 5.00 to 6.00 | 6.00 to 7.00
Cc1ncn2c1c(N)nc1cc(F)c(C(=O)N(C)C3COc4cc(-c5cnn(C)c5)ccc43)cc12 (stereo not shown) [Example 226] | 5.00 to 6.00 | 6.00 to 7.00
CCN(C(=O)c1cc2c(cc1F)nc(N)c1c(C)ncn12)C1COc2cc(Br)cnc21 (stereo not shown) [Example 228] | 5.00 to 6.00 | 6.00 to 7.00
COc1ccc(N(Cc2cn3ccccc3n2)C(=O)c2cc3c(cc2F)nc(N)c2cnc(C)n23)cn1 [Example 229] | 5.00 to 6.00 | > 7.00
Cc1nn(C)cc1N(Cc1cn2ncccc2n1)C(=O)c1cc2c(cc1F)nc(N)c1cnc(C)n12 [Example 231] | 5.00 to 6.00 | 6.00 to 7.00
Cc1nn(C)cc1N(Cc1cn2cc(C(F)(F)F)ccc2n1)C(=O)c1cc2c(cc1F)nc(N)c1c(C)ncn12 [Example 233] | 5.00 to 6.00 | > 7.00
Cc1nn(C)cc1N(Cc1cn2cc(C(F)(F)F)ccc2n1)C(=O)c1cc2c(cc1F)nc(N)c1cnc(C)n12 [Example 234] | 5.00 to 6.00 | > 7.00
Cc1nn(C)cc1N(Cc1cc2ccc(C(F)(F)F)cn2n1)C(=O)c1cc2c(cc1F)nc(N)c1c(C)ncn12 [Example 235] | > 7.00 | > 7.00
Cc1nn(C)cc1N(Cc1cc2ccc(C(F)(F)F)cn2n1)C(=O)c1cc2c(cc1F)nc(N)c1cnc(C)n12 [Example 236] | 5.00 to 6.00 | > 7.00
Cc1nn(C)cc1N(Cc1nc2ccccc2[nH]1)C(=O)c1cc2c(cc1F)nc(N)c1c(C)ncn12 [Example 237] | 5.00 to 6.00 | 6.00 to 7.00
Cc1ncc2c(N)nc3cc(F)c(C(=O)N(Cc4cn5cc(C(F)(F)F)ccc5n4)c4ccnn4C)cc3n12 [Example 239] | 5.00 to 6.00 | > 7.00
Cc1ncc2c(N)nc3cc(F)c(C(=O)N(Cc4cn5cc(C(F)(F)F)ccc5n4)c4c(F)cnn4C)cc3n12 [Example 241, 4-amino-7-fluoro-N-(4-fluoro-2-methyl-pyrazol-3-yl)-1-methyl-N-[[6-(trifluoromethyl)imidazolo [1,2-a]pyridin-2-yl]methyl] imidazolo [1,5-a] quinoxalin-8-carboxamide] | 6.00 to 7.00 | > 7.00
Cc1ncc2c(N)nc3cc(F)c(C(=O)N(Cc4nc5ccc(C(F)(F)F)cc5[nH]4)c4ccnn4C)cc3n12 [Example 245] | 5.00 to 6.00 | > 7.00

Compound | pIC50 (HCT116 MTAP WT cells) | pIC50 [1]
Cc1ncc2c(N)nc3cc(F)c(C(=O)N(Cc4cn5cc(C(F)(F)F)ccc5n4)c4ccnn4C(F)F)cc3n12 [Example 246] | 5.00 to 6.00 | > 7.00
Cc1ncn2c1c(N)nc1cc(F)c(C(=O)N(Cc3cn4cc(C#N)ccc4n3)c3cnn(C)c3)cc12 [Example 253] | 5.00 to 6.00 | 6.00 to 7.00
Cc1ncn2c1c(N)nc1cc(F)c(C(=O)N(Cc3cn4cc(CN5CCOCC5)ccc4n3)c3cnn(C)c3)cc12 [Example 254] | 5.00 to 6.00 | 6.00 to 7.00
Cc1ncn2c1c(N)nc1cc(F)c(C(=O)N(Cc3cn4ccccc4n3)c3cnn(C)c3C)cc12 [Example 255] | 5.00 to 6.00 | 6.00 to 7.00
Cc1ncn2c1c(N)nc1cc(F)c(C(=O)N(Cc3cn4ccccc4n3)c3cnn(C)c3)cc12 [Example 257] | 5.00 to 6.00 | 6.00 to 7.00
CCN(Cc1cn2cc(-c3cnn(C)c3)ccc2n1)C(=O)c1cc2c(cc1F)nc(N)c1c(C)ncn12 [Example 258] | 5.00 to 6.00 | 6.00 to 7.00
Cc1ncn2c1c(N)nc1cc(F)c(C(=O)N(Cc3cn4cc(C(F)(F)F)ccc4n3)c3cnn(C)c3)cc12 [Example 259] | 5.00 to 6.00 | > 7.00
Cc1ncn2c1c(N)nc1cc(F)c(C(=O)N(Cc3cn4ccccc4n3)C3CCC3O)cc12 (stereo not shown) [Example 261] | 5.00 to 6.00 | 6.00 to 7.00
Cc1ncn2c1c(N)nc1cc(F)c(C(=O)N(Cc3cn4ccccc4n3)c3cnn(C)n3)cc12 [Example 262] | 5.00 to 6.00 | > 7.00
Cc1ncn2c1c(N)nc1cc(F)c(C(=O)N(CCC#N)Cc3cn4ccccc4n3)cc12 [Example 264] | 5.00 to 6.00 | 6.00 to 7.00
Cc1ncn2c1c(N)nc1cc(F)c(C(=O)N(Cc3nc4ccc(C(F)(F)F)cc4[nH]3)CC(C)C)cc12 [Example 269] | 5.00 to 6.00 | 6.00 to 7.00
COCC(C)N(Cc1cn2ccccc2n1)C(=O)c1cc2c(cc1F)nc(N)c1c(C)ncn12 (stereo not shown) [Example 271] | 5.00 to 6.00 | > 7.00
COC1CC(N(Cc2cn3ccccc3n2)C(=O)c2cc3c(cc2F)nc(N)c2c(C)ncn23)C1 (stereo not shown) [Example 273] | 5.00 to 6.00 | > 7.00
CCN(Cc1cn2ccccc2n1)C(=O)c1cc2c(cc1F)nc(N)c1c(C)ncn12 [Example 274] | 5.00 to 6.00 | 6.00 to 7.00
Cc1ncn2c1c(N)nc1cc(F)c(C(=O)N(Cc3cn4ccccc4n3)CC(C)C)cc12 [Example 277] | 5.00 to 6.00 | > 7.00
COC1CCCC1N(Cc1cn2ccccc2n1)C(=O)c1cc2c(cc1F)nc(N)c1c(C)ncn12 (stereo not shown) [Example 278] | 5.00 to 6.00 | > 7.00
CCN(Cc1cn2ccccc2n1)C(=O)c1ccc2nc(N)c3ncc(C)n3c2c1 [Example 279] | 5.00 to 6.00 | 6.00 to 7.00
Cc1ncn2c1c(N)nc1cc(F)c(C(=O)N(Cc3cn4cc(C(F)(F)F)ccc4n3)C3CCC3O)cc12 (stereo not shown) [Example 280] | 5.00 to 6.00 | 6.00 to 7.00

Next, values leading:

pIC50 (HCT116 MTAP WT cells) | pIC50 [1] | Compound
5.00 to 6.00 | 6.00 to 7.00 | Cc1ncc2c(N)nc3cc(F)c(C(=O)N(Cc4cc5c(cn4)COC5)c4cnn(C)c4)cc3n12 [Example 211]
5.00 to 6.00 | 6.00 to 7.00 | CCN(Cc1cc2c(cn1)OCC2)C(=O)c1cc2c(cc1F)nc(N)c1cnc(C)n12 [Example 214]
5.00 to 6.00 | 6.00 to 7.00 | CCN(Cc1ccc2c(c1)CCO2)C(=O)c1cc2c(cc1F)nc(N)c1cnc(C)n12 [Example 216]
5.00 to 6.00 | 6.00 to 7.00 | CCN(Cc1cn2cc(CCN3CCOCC3)ccc2n1)C(=O)c1cc2c(cc1F)nc(N)c1cnc(C)n12 [Example 217]
5.00 to 6.00 | 6.00 to 7.00 | Cc1ncc2c(N)nc3cc(F)c(C(=O)N(Cc4ccc5c(c4)CCO5)c4cnn(C)c4)cc3n12 [Example 219]
5.00 to 6.00 | > 7.00 | CCN(C(=O)c1cc2c(cc1F)nc(N)c1cnc(C)n12)C1COc2cc(C(F)(F)F)ccc21 (stereo not shown) [Example 222]
5.00 to 6.00 | > 7.00 | Cc1ncc2c(N)nc3cc(F)c(C(=O)N(c4cnn(C)c4)C4COc5ccccc54)cc3n12 (stereo not shown) [Example 225]
5.00 to 6.00 | > 7.00 | Cc1nn(C)cc1N(Cc1cc2ccccn2n1)C(=O)c1cc2c(cc1F)nc(N)c1cnc(C)n12 [Example 227]
5.00 to 6.00 | 6.00 to 7.00 | Cc1ncc2c(N)nc3cc(F)c(C(=O)N(Cc4cn5cc(C(F)(F)F)ccc5n4)C4CCOC4)cc3n12 (stereo not shown) [Example 230]
5.00 to 6.00 | 6.00 to 7.00 | Cc1ncc2c(N)nc3cc(F)c(C(=O)N(Cc4cc5ccccn5n4)C4CCOC4)cc3n12 (stereo not shown) [Example 232]
6.00 to 7.00 | > 7.00 | CCn1nccc1N(Cc1cn2cc(C(F)(F)F)ccc2n1)C(=O)c1cc2c(cc1F)nc(N)c1cnc(C)n12 [Example 242]
5.00 to 6.00 | 6.00 to 7.00 | Cc1ncc2c(N)nc3cc(F)c(C(=O)N(Cc4cn5cc(CN6CCOCC6)ccc5n4)c4ccnn4C)cc3n12 [Example 243]
5.00 to 6.00 | > 7.00 | Cc1ncc2c(N)nc3cc(F)c(C(=O)N(Cc4cn5ccccc5n4)c4ccnn4C)cc3n12 [Example 244]
5.00 to 6.00 | 6.00 to 7.00 | CCN(Cc1cn2cc(-c3cnn(C)c3)ccc2n1)C(=O)c1cc2c(cc1F)nc(N)c1cnc(C)n12 [Example 247]
5.00 to 6.00 | 6.00 to 7.00 | CCN(Cc1cn2cc(CN3CCOCC3)ccc2n1)C(=O)c1cc2c(cc1F)nc(N)c1c(C)ncn12 [Example 249]
5.00 to 6.00 | > 7.00 | CCN(Cc1cc2ccccn2n1)C(=O)c1cc2c(cc1F)nc(N)c1cnc(C)n12 [Example 250]
5.00 to 6.00 | 6.00 to 7.00 | Cc1ncc2c(N)nc3cc(F)c(C(=O)N(Cc4cn5ccccc5n4)CC(F)F)cc3n12 [Example 252]
5.00 to 6.00 | 6.00 to 7.00 | CCN(Cc1cn2cc(OC)ccc2n1)C(=O)c1cc2c(cc1F)nc(N)c1c(C)ncn12 [Example 263]
5.00 to 6.00 | > 7.00 | CCN(Cc1cn2cc(F)ccc2n1)C(=O)c1cc2c(cc1F)nc(N)c1c(C)ncn12 [Example 267]
5.00 to 6.00 | 6.00 to 7.00 | CCN(Cc1cn2ccccc2n1)C(=O)c1cc2c(cc1C)nc(N)c1cnc(C)n12 [Example 268]
5.00 to 6.00 | 6.00 to 7.00 | CCN(Cc1cn2c(C)cccc2n1)C(=O)c1cc2c(cc1F)nc(N)c1c(C)ncn12 [Example 272]
5.00 to 6.00 | 6.00 to 7.00 | Cc1ncc2c(N)nc3cc(F)c(C(=O)N(Cc4nc5ccc(C(F)(F)F)cc5[nH]4)CC(C)C)cc3n12 [Example 276]
